The experiment concerns P388 leukemia ip, CD2F1 mice, survival T/C. Kind of experiment: NCI In Vivo Anticancer Drug Screen. Data for tumor model P388 Leukemia (intraperitoneal) in CD2F1 (CDF1) mice. The following applies: endpoint: median survival time, higher = longer survival. The method, boiled down:
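Mice carrying the transplanted tumor received test compound or vehicle. Survival was recorded in each group, and the value is the treated-group measurement divided by that of the vehicle-treated control group.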

Setting [1] is: dose: 50.0 mg/kg/injection, schedule: Q01DX005 (ip), vehicle: saline with Tween-80.
Where [2] appears, read: dose: 100.0 mg/kg/injection, schedule: Q01DX005 (ip), vehicle: saline with Tween-80.
Where [3] appears, read: dose: 100.0 mg/kg/injection, schedule: Q04DX003 (ip), vehicle: saline with Tween-80.
[4] abbreviates: dose: 200.0 mg/kg/injection, schedule: Q04DX003 (ip), vehicle: saline with Tween-80.
The mark [5] stands for this setting: dose: 60.0 mg/kg/injection, schedule: Q01DX005 (ip), vehicle: saline with Tween-80.
The mark [6] stands for this setting: dose: 120.0 mg/kg/injection, schedule: Q01DX005 (ip), vehicle: saline with Tween-80.
The mark [7] stands for this setting: dose: 50.0 mg/kg/injection, schedule: Q01DX009 (ip), vehicle: saline with Tween-80.
The mark [8] stands for this setting: dose: 50.0 mg/kg/injection, schedule: Q01DX005 (ip), vehicle: saline.
[9] abbreviates: dose: 100.0 mg/kg/injection, schedule: Q01DX005 (ip), vehicle: saline.
Where [10] appears, read: dose: 50.0 mg/kg/injection, schedule: Q01DX009 (ip), vehicle: saline.
Where [11] appears, read: dose: 100.0 mg/kg/injection, schedule: Q01DX009 (ip), vehicle: saline.
[12] abbreviates: dose: 200.0 mg/kg/injection, schedule: Q01DX009 (ip), vehicle: saline.

These results are taken from PubChem BioAssay AID330 (DTP/NCI, 2004).

Inconclusive results and toxic doses are left out.

For the compound `C1CCN(P2(N3CCCCC3)=NP(N3CCCCC3)(N3CCCCC3)=NP(N3CCCCC3)(N3CCCCC3)=NP(N3CCCCC3)(N3CCCCC3)=N2)CC1`, the T/C under setting [1] was 96 % of control and the T/C under setting [2] was 88 % of control.
On to `CCC1(c2ccccc2)Nc2ccccc2C1=Nc1ccccc1` (configuration not stated), for which the T/C is 100 % of control (dose: 50.0 mg/kg/injection, schedule: Q04DX003 (ip), vehicle: saline with Tween-80); 99 % of control under setting [3]; 90 % of control under setting [4].
Turning to `C=CCNC(=O)SCC`, the T/C runs as follows: under setting [1], 107 % of control; under setting [2], 116 % of control.
With `CC12CCC(N3CCCC3)CC1=CCC1C2CCC2(C)C1CCCN2CCO` (configuration not stated), the T/C was 99 % of control (dose: 12.5 mg/kg/injection, schedule: Q01DX001 (ip), vehicle: Klucel (hydroxypropylcellulose) (HPC)); 99 % of control (dose: 25.0 mg/kg/injection, schedule: Q01DX001 (ip), vehicle: Klucel (hydroxypropylcellulose) (HPC)); 103 % of control (dose: 50.0 mg/kg/injection, schedule: Q01DX001 (ip), vehicle: Klucel (hydroxypropylcellulose) (HPC)).
For `ClCc1nnc2n1-c1ccc(Cl)cc1SC2`, the T/C under setting [5] was 106 % of control and the T/C under setting [6] is 107 % of control.
Consider `CN[C@H]1CC[C@]23C[C@]24CC[C@]2(C)[C@@H]([C@H](C)N(C)C)CC[C@@]2(C)[C@@H]4CC[C@H]3C1(C)C`, for which the T/C reads like this: (dose: 3.12 mg/kg/injection, schedule: Q01DX009 (ip), vehicle: saline with Tween-80) 112 % of control; (dose: 6.25 mg/kg/injection, schedule: Q01DX009 (ip), vehicle: saline with Tween-80) 100 % of control; (dose: 12.5 mg/kg/injection, schedule: Q01DX009 (ip), vehicle: saline with Tween-80) 102 % of control; (dose: 25.0 mg/kg/injection, schedule: Q01DX009 (ip), vehicle: saline with Tween-80) 102 % of control; under setting [7], 118 % of control.
`CC(=O)O[C@@H]1CCC2CCC1N2C` (some centres not stated): the T/C is, setting by setting: under setting [8], 97 % of control; under setting [9], 95 % of control; (dose: 200.0 mg/kg/injection, schedule: Q01DX005 (ip), vehicle: saline) 95 % of control.
As to `COc1cc[c]([Pb]([O]C(C)=O)([O]C(C)=O)[O]C(C)=O)cc1`, the T/C runs as follows: under setting [3], 103 % of control; under setting [4], 103 % of control; (dose: 400.0 mg/kg/injection, schedule: Q04DX003 (ip), vehicle: saline with Tween-80) 111 % of control.
With `CCOP(=O)(NCCCOC)OCC`, the T/C by setting is: (dose: 25.0 mg/kg/injection, schedule: Q01DX005 (ip), vehicle: saline) 97 % of control; under setting [8], 100 % of control; under setting [9], 99 % of control.
Regarding `O=Nc1c[nH]c(=O)[nH]c1=O`, the T/C under setting [10] is 97 % of control, the T/C under setting [11] was 98 % of control and the T/C under setting [12] was 100 % of control.
`COc1ccc(C(=O)NO)cc1`: the T/C was 109 % of control under setting [7]; 102 % of control (dose: 100.0 mg/kg/injection, schedule: Q01DX009 (ip), vehicle: saline with Tween-80); 109 % of control (dose: 200.0 mg/kg/injection, schedule: Q01DX009 (ip), vehicle: saline with Tween-80); 115 % of control (dose: 400.0 mg/kg/injection, schedule: Q01DX009 (ip), vehicle: saline with Tween-80).
With `Oc1ccc2c3c1OC1C(=NN=C4CCC5(O)C6Cc7ccc(O)c8c7C5(CCN6CC5CC5)C4O8)CCC4(O)C(C2)N(CC2CC2)CCC314` (configuration not stated), the T/C is, setting by setting: under setting [1], 91 % of control; under setting [2], 98 % of control; (dose: 200.0 mg/kg/injection, schedule: Q01DX005 (ip), vehicle: saline with Tween-80) 99 % of control.
Turning to `COc1ccc2c(c1)s/c(=N/N)n2CCCS(=O)(=O)O`, the T/C reads like this: under setting [10], 109 % of control; under setting [11], 103 % of control; under setting [12], 110 % of control.
As for `C/C(=N\NC(=S)Nc1ccc(C(=O)O)cc1C)c1ccccn1`, the T/C is, setting by setting: under setting [1], 114 % of control; under setting [2], 121 % of control.
As to `Cc1ccc(S(=O)(=O)N(C)c2cc(Cl)c(C(=O)O)c(Cl)c2)cc1`, the T/C was 99 % of control (dose: 88.0 mg/kg/injection, schedule: Q04DX003 (ip), vehicle: saline with Tween-80); 100 % of control (dose: 133.0 mg/kg/injection, schedule: Q04DX003 (ip), vehicle: saline with Tween-80); 99 % of control under setting [4]; 100 % of control (dose: 300.0 mg/kg/injection, schedule: Q04DX003 (ip), vehicle: saline with Tween-80).
With `Cc1ccc(-n2c(C)nc3[nH]cc(C)c3c2=N)cc1`, the T/C (dose: 6.25 mg/kg/injection, schedule: Q01DX005 (ip), vehicle: Klucel (hydroxypropylcellulose) (HPC)) was 101 % of control; the T/C (dose: 12.5 mg/kg/injection, schedule: Q01DX005 (ip), vehicle: Klucel (hydroxypropylcellulose) (HPC)) is 99 % of control; the T/C (dose: 25.0 mg/kg/injection, schedule: Q01DX005 (ip), vehicle: Klucel (hydroxypropylcellulose) (HPC)) was 99 % of control.
For `CCOC(=O)C(C)/C(C)=N\NC(N)=S` (configuration not stated), the T/C was 100 % of control (dose: 60.0 mg/kg/injection, schedule: Q01DX005 (ip), vehicle: Klucel (hydroxypropylcellulose) (HPC)); 100 % of control (dose: 120.0 mg/kg/injection, schedule: Q01DX005 (ip), vehicle: Klucel (hydroxypropylcellulose) (HPC)); 100 % of control (dose: 240.0 mg/kg/injection, schedule: Q01DX005 (ip), vehicle: Klucel (hydroxypropylcellulose) (HPC)).
As to `O=c1[nH]c2c([N+](=O)[O-])cc(Cl)cc2nc1/C=C(\O)c1ccc2ccccc2c1`, the T/C was 98 % of control under setting [5]; 90 % of control under setting [6]; 99 % of control (dose: 240.0 mg/kg/injection, schedule: Q01DX005 (ip), vehicle: saline with Tween-80).
Consider `C=C(CO)C(=O)OC1CC(=C)C2CC(O)C(=C)C2[C@H]2OC(=O)C(=C)C12` (some centres not stated), for which the T/C was 92 % of control (dose: 3.75 mg/kg/injection, schedule: Q01DX009 (ip), vehicle: saline); 99 % of control (dose: 7.5 mg/kg/injection, schedule: Q01DX009 (ip), vehicle: saline); 108 % of control (dose: 15.0 mg/kg/injection, schedule: Q01DX009 (ip), vehicle: saline).
Regarding `Cc1[nH]c2ccccc2c1SCc1ccccc1`, the T/C is, setting by setting: (dose: 25.0 mg/kg/injection, schedule: Q01DX009 (ip), vehicle: saline + alcohol) 94 % of control; (dose: 50.0 mg/kg/injection, schedule: Q01DX009 (ip), vehicle: saline + alcohol) 100 % of control; (dose: 100.0 mg/kg/injection, schedule: Q01DX009 (ip), vehicle: saline + alcohol) 99 % of control.
With `CCCCCCCCCCCCCCCC(=O)N(CC#CCN(C(=O)CCCCCCCCCCCCCCC)C(C)CCCN(CC)CC)C(C)CCCN(CC)CC` (configuration not stated), the T/C is 97 % of control (dose: 25.0 mg/kg/injection, schedule: Q01DX009 (ip), vehicle: other) and 101 % of control (dose: 50.0 mg/kg/injection, schedule: Q01DX009 (ip), vehicle: other).
